Results published in patent US20250195530A1, “POLQ INHIBITORS” (ASTRAZENECA AB, priority 2022, published 2025).
Like-named read-outs stand apart in the source and are kept apart here.

Tests used:
DLD-1 BRCA2−/− cells = test: Homologous recombination synthetic lethal inhibition of proliferation, DLD-1 BRCA2-/- (Cell Titre Glo 3D); type: cell-based; conditions: for IC50: Homo sapiens, read-out: POLQ PD Prolif Lumin (converted); for POLQ PD Prolif Lumin: DLD-1 BRCA2-/- proliferation
In short: (§1)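 Cells are seeded in RPMI 1640 (phenol red free, 10% FBS, GlutaMAX) onto pre-dosed compound (10 μM to 0.51 nM, three-fold). Plates are incubated at 37 °C, and medium plus compound are refreshed on day 6. Viability is read by CellTiter-Glo 3D at day 7 (DLD-1) or day 12 (DLD-1 BRCA2−/−), and the IC50 is fitted.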

DLD-1 cells = test: Inhibition of proliferation, DLD-1 BRCA2 wt control (Cell Titre Glo 3D); type: cell-based; conditions: for IC50: Homo sapiens, read-out: POLQ PD Prolif Lumin (converted); for POLQ PD Prolif Lumin: DLD-1 BRCA2 wt control proliferation
In short: as §1

[1] = DLD-1, DLD-1 BRCA2-/- proliferation, column head only partly shown
[2] = DLD-1, DLD-1 BRCA2 wt control proliferation, column head only partly shown
[3] = DLD-1, first proliferation column (c5), taken as DLD-1 BRCA2-/-
[4] = DLD-1, second proliferation column (c6), taken as DLD-1 BRCA2 wt

| IC50 (DLD-1 cells; [2]) [nM] | IC50 (DLD-1 cells; [4]) [nM] | Structure (SMILES) | IC50 (DLD-1 BRCA2−/− cells; [1]) [nM] | IC50 (DLD-1 BRCA2−/− cells; [3]) [nM] | other results |
| --- | --- | --- | --- | --- | --- |
| > 10000 |  | Cc1cnc(Cn2c(-c3ccc(OC[C@H]4CCCN4C)cc3Cl)nc3c(OC4(C)CC4)ncnc32)s1 [Example T240, (R)-2-((8-(2-chloro-4-((1-methylpyrrolidin-2-yl)methoxy)phenyl)-6-(1-methylcyclopropoxy)-9H-purin-9-yl)methyl)-5-methylthiazole] | 316 |  |  |
| > 10000 |  | Cc1cnc(Cn2c(-c3ccc(OC4CCN(C)CC4)cc3Cl)nc3c(OC4(C)CC4)ncnc32)s1 [Example T241, 2-((8-(2-chloro-4-((1-methylpiperidin-4-yl)oxy)phenyl)-6-(1-methylcyclopropoxy)-9H-purin-9-yl)methyl)-5-methylthiazole] | 316 |  |  |
| > 7940 |  | Cc1cnc(Cn2c(-c3ccc(OCCCN4CC(O)C4)cc3Cl)nc3c(OC4(C)CC4)ncnc32)s1 [Example T244, 1-(3-(3-chloro-4-(6-(1-methylcyclopropoxy)-9-((5-methylthiazol-2-yl)methyl)-9H-purin-8-yl)phenoxy)propyl)azetidin-3-ol] | 501 |  |  |
| > 10000 |  | Cc1cnc(Cn2c(-c3cccc(OCCCN4CC(O)C4)c3Cl)nc3c(OC4(C)CC4)ncnc32)s1 [Example T246, 1-(3-(2-chloro-3-(6-(1-methylcyclopropoxy)-9-((5-methylthiazol-2-yl)methyl)-9H-purin-8-yl)phenoxy)propyl)azetidin-3-ol] | 794 |  |  |
| > 10000 |  | Cc1csc(Cn2c(-c3ccc(OCCN4CCNCC4)cc3Cl)nc3c(OC4(C)CC4)ncnc32)n1 [Example T248, 2-((8-(2-chloro-4-(2-(piperazin-1-yl)ethoxy)phenyl)-6-(1-methylcyclopropoxy)-9H-purin-9-yl)methyl)-4-methylthiazole] | 2000 |  |  |
| > 10000 |  | Cc1ncc(Cn2c(-c3ccc(OCCN4CCNCC4)cc3Cl)nc3c(OC4(C)CC4)ncnc32)s1 [Example T249, 5-((8-(2-chloro-4-(2-(piperazin-1-yl)ethoxy)phenyl)-6-(1-methylcyclopropoxy)-9H-purin-9-yl)methyl)-2-methylthiazole] | 3980 |  |  |
| > 10000 |  | CC1(Oc2ncnc3c2nc(-c2ccc(OCc4nc(C(=O)O)cs4)cc2Cl)n3Cc2cccc(Cl)c2)CC1 [Example T250, 2-((3-chloro-4-(9-(3-chlorobenzyl)-6-(1-methylcyclopropoxy)-9H-purin-8-yl)phenoxy)methyl)thiazole-4-carboxylic acid] | 3160 |  |  |
|  |  | CC1(Oc2ncnc3c2nc(-c2ccc(O[C@H]4C[C@H](C(=O)O)C4)cc2Cl)n3Cc2cccc(Cl)c2)CC1 [Example T253, (1r,3r)-3-(3-chloro-4-(9-(3-chlorobenzyl)-6-(1-methylcyclopropoxy)-9H-purin-8-yl)phenoxy)cyclobutane-1-carboxylic acid] |  |  | POLQ PD Prolif Lumin (DLD-1 BRCA2−/− cells; column head only partly shown): 6.5; POLQ PD Prolif Lumin (DLD-1 cells; column head only partly shown): <5.0 |
|  |  | CC1(Oc2ncnc3c2nc(-c2ccc(O[C@H]4C[C@@H](C(=O)O)C4)cc2Cl)n3Cc2cccc(Cl)c2)CC1 [Example T254, (1s,3s)-3-(3-chloro-4-(9-(3-chlorobenzyl)-6-(1-methylcyclopropoxy)-9H-purin-8-yl)phenoxy)cyclobutane-1-carboxylic acid] |  |  | POLQ PD Prolif Lumin (DLD-1 BRCA2−/− cells; column head only partly shown): 6.8; POLQ PD Prolif Lumin (DLD-1 cells; column head only partly shown): <5.0 |
| > 10000 |  | CC1(Oc2ncnc3c2nc(-c2ccc(OCCN4CC(O)C4)cc2Cl)n3Cc2cc(C(F)(F)F)ccn2)CC1 [Example T284, 1-(2-(3-chloro-4-(6-(1-methylcyclopropoxy)-9-((4-(trifluoromethyl)pyridin-2-yl)methyl)-9H-purin-8-yl)phenoxy)ethyl)azetidin-3-ol] | 501 |  |  |
| > 10000 |  | CC1(Oc2ncnc3c2nc(-c2cccc(OCCCCC(=O)O)c2Cl)n3Cc2cccc(Cl)c2)CC1 [Example T292, 5-(2-chloro-3-(9-(3-chlorobenzyl)-6-(1-methylcyclopropoxy)-9H-purin-8-yl)phenoxy)pentanoic acid] | 31.6 |  |  |
| > 10000 |  | C[C@@H](CCOc1cccc(-c2nc3c(OC4(C)CC4)ncnc3n2Cc2cccc(Cl)c2)c1Cl)C(=O)O [Example T296, (S)-4-(2-chloro-3-(9-(3-chlorobenzyl)-6-(1-methylcyclopropoxy)-9H-purin-8-yl)phenoxy)-2-methylbutanoic acid] | 25.1 |  |  |
|  | > 10000 | CC1(Oc2ncnc3c2nc(-c2ccc(OCCCOCC(=O)O)cc2Cl)n3Cc2cccc(Cl)c2)CC1 [Example T302, 2-(3-(3-chloro-4-(9-(3-chlorobenzyl)-6-(1-methylcyclopropoxy)-9H-purin-8-yl)phenoxy)propoxy)acetic acid] |  | 316 |  |
|  | > 10000 | CC1(Oc2ncnc3c2nc(-c2cccc(OCCCOCC(=O)O)c2Cl)n3Cc2cccc(Cl)c2)CC1 [Example T304, 2-(3-(2-chloro-3-(9-(3-chlorobenzyl)-6-(1-methylcyclopropoxy)-9H-purin-8-yl)phenoxy)propoxy)acetic acid] |  | 100 |  |
|  | > 10000 | CC1(Oc2ncnc3c2nc(-c2ccc(OCCN4CC(O)C4)cc2Cl)n3Cc2cc(C(F)F)ccn2)CC1 [Example T307, 1-(2-(3-chloro-4-(9-((4-(difluoromethyl)pyridin-2-yl)methyl)-6-(1-methylcyclopropoxy)-9H-purin-8-yl)phenoxy)ethyl)azetidin-3-ol] |  | 1580 |  |
|  | > 10000 | Cc1ccnc(Cn2c(-c3ccc(CC(=O)N4CCC4)cc3Cl)nc3c(OC4(C)CC4)ncnc32)c1 [Example T308, 1-(azetidin-1-yl)-2-(3-chloro-4-(6-(1-methylcyclopropoxy)-9-((4-methylpyridin-2-yl)methyl)-9H-purin-8-yl)phenyl)ethan-1-one] |  | 316 |  |
|  | > 10000 | Cc1ccnc(Cn2c(-c3ccc(CC(=O)NC4CC4)cc3Cl)nc3c(OC4(C)CC4)ncnc32)c1 [Example T310, 2-(3-chloro-4-(6-(1-methylcyclopropoxy)-9-((4-methylpyridin-2-yl)methyl)-9H-purin-8-yl)phenyl)-N-cyclopropylacetamide] |  | 398 |  |
|  | > 10000 | Cc1ccnc(Cn2c(-c3ccc(C(=O)N4CC[C@@H](O)C4)cc3Cl)nc3c(OC4(C)CC4)ncnc32)c1 [Example T311, (R)-(3-chloro-4-(6-(1-methylcyclopropoxy)-9-((4-methylpyridin-2-yl)methyl)-9H-purin-8-yl)phenyl)(3-hydroxypyrrolidin-1-yl)methanone] |  | 3980 |  |
|  | > 10000 | CC1(Oc2ncnc3c2nc(-c2ccc(OCCCC(=O)NS(C)(=O)=O)cc2Cl)n3Cc2cccc(Cl)c2)CC1 [Example T326, 4-(3-chloro-4-(9-(3-chlorobenzyl)-6-(1-methylcyclopropoxy)-9H-purin-8-yl)phenoxy)-N-(methylsulfonyl)butanamide] |  | 631 |  |
|  | 10000 | CN(C)CCCOc1ccc(-c2nc3c(OC4(C)CC4)ncnc3n2Cc2cc(C(F)(F)F)ccn2)c(Cl)c1 [Example T329, 3-(3-chloro-4-(6-(1-methylcyclopropoxy)-9-((4-(trifluoromethyl)pyridin-2-yl)methyl)-9H-purin-8-yl)phenoxy)-N,N-dimethylpropan-1-amine] |  | 126 |  |

| Structure (SMILES) | IC50 (DLD-1 cells; [2]) [nM] | IC50 (DLD-1 cells; [4]) [nM] | IC50 (DLD-1 BRCA2−/− cells; [1]) [nM] | IC50 (DLD-1 BRCA2−/− cells; [3]) [nM] | other results |
| --- | --- | --- | --- | --- | --- |
| CC(C)(C)Oc1cccc2c1nc(-c1ccc(OCCC(=O)O)cc1Cl)n2Cc1cccc(Cl)c1 [Example T288, 3-(4-(4-(tert-butoxy)-1-(3-chlorobenzyl)-1H-benzo[d]imidazol-2-yl)-3-chlorophenoxy)propanoic acid] | > 10000 |  | 2000 |  |  |
